# According to paper PMC7913412, “Identification and characterization of heteroclitic peptides in TCR-binding positions with improved HLA-binding efficacy” (Journal of Translational Medicine, 2021):
# Molecular target: H2-Db molecule (Mus musculus, UniProt P01899)
# Experiment: Peptide binding affinity assay on TAP-deficient RMA-S cells (anti-H-2Db staining, flow cytometry)
# Type: cell-based
# Conditions: 3 x 10^5 cells/well, peptide 1, 5, 10 μM, 4 h at 37 °C, anti-H-2Db antibody, flow cytometry MFI, triplicate
# Experimental: Peptide binding affinity to H2-Db molecule was performed for each selected peptide. Tap-deficient mouse derived H-2Db RMA-S cells were cultured for 24 h at 26 °C to accumulate empty MHC-I molecules on the cell surface. Cells were washed in serum-free medium and incubated at 3 × 10^5 cells/well with varying concentrations of peptides (1 μM, 5 μM, 10 μM) for 4 h at 37 °C with 5% CO2. Cells were harvested, washed with phosphate-buffered saline (1 × PBS; Gibco Life Technologies), stained with anti-H-2Db fluorescent monoclonal antibody (cat. 1157535; SONY) and analyzed by flow cytometry. All the experiments were performed in triplicate.
# In order to experimentally confirm the binding of heteroclitic peptides to H-2 Db molecule, the H-2 Db positive RMA-S cell line was loaded with different concentrations (1 μM, 5 μM, 10 μM) of selected heteroclitic peptides modified in p4 with a predicted affinity higher than the wt peptide.
# Chain of H2-Db molecule (P01899 whole entry, looked up): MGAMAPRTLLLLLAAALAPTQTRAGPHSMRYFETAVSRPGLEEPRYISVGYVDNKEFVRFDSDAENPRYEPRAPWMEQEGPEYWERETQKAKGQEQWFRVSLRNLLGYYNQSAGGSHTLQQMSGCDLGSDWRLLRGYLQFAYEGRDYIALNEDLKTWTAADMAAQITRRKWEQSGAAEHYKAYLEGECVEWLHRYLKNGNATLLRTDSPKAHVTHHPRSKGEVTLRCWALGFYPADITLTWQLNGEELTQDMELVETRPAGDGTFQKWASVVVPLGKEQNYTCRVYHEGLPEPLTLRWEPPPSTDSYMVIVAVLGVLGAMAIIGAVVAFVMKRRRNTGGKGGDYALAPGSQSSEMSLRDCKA
row,Sequence,Binding to H-2Db compared with the wt peptide (in words)
1,"RAHWNIVTF [RAHWNIVTF (MUT418), heteroclitic HPV-E7 peptide, Trp at p4]",strongest binding
2,"SVYWFFVWL [SVYWFFVWL (MUT417), heteroclitic Trp2 peptide, Trp at p4]",binding lower than the wt
3,"SVYEFFVWL [SVYEFFVWL (MUT42), heteroclitic Trp2 peptide, Glu at p4]",binding lower than the wt
4,"SVYCFFVWL [SVYCFFVWL (MUT41), heteroclitic Trp2 peptide, Cys at p4]",binding lower than the wt
